Results as given in article PMC10683482, “Offsetting Low-Affinity Carbohydrate Binding with Covalency to Engage Sugar-Specific Proteins for Tumor-Immune Proximity Induction” (ACS Central Science, 2023).

System: Hek-PSMA cells
Assay: Microscopy of induced antibody recruitment (opsonization)
Assay type: cell-based, human
Conditions: 8 μM compound with 4 μM anti-23F 24 h
Protocol: To test the antitumor immune function of rhamnose SO2F cARMs, GU was again incorporated as a TBD for PSMA targeting (compound 14, Figure 5A, Scheme S5). The ability to selectively induce opsonization of model prostate cancer cells via monoclonal anti-23F was first evaluated using fluorescence microscopy (Figure 5B, Figure S12). Compound 14 (8 μM) was incubated with anti-23F (4 μM) for 24 h followed by addition to PSMA expressing Hek-PSMA cells. Following a 20 min incubation, fluorescent secondary antibody was added. […] The addition of rhamnose competitor during the antibody labeling reaction again inhibited covalent antibody engagement and opsonization of target cells (Figure S12).
Figure 5 Functional analysis of PSMA-targeting SuFEx cARMs. A. Chemical structure of the functional GU cARM molecule used for PSMA targeting. B. Confocal (top) and fluorescent imaging (bottom) of Hek-PSMA cells treated with anti-23F only or anti-23F antibody pre-incubated with rhamnose-SO2F-cARM 14. C. Jurkat activation assay evaluation of 14 directly in polyclonal human IgG. Each cARM/ARM (9 μM) was incubated with polyclonal human IgG (230 μM) overnight and then added to pre-plated Hek-P cells (50,000 cells). […] Activation of jurkat cells was determined by measuring luciferase expression with a BioGlo assay kit. […] ADCP was determined via flow cytometry. […]

With C[C@@H]1O[C@@H](OCc2cn(CCCNC(=O)OCCNC(=O)CCCCCNC(=O)CCCCCNC(=O)CCCCCNC(=O)NCCCC[C@H](NC(=O)N[C@@H](CCC(=O)O)C(=O)O)C(=O)O)nn2)[C@H](O)[C@H](O)[C@H]1O [compound 11] the “opsonization of target cells” value was “failed to opsonize target cells”.
